Laboratory results reported in US10329260B2, “Human plasma kallikrein inhibitors” (BioCryst Pharmaceuticals, Inc., priority 2014, dated 2019).

Target: human plasma kallikrein (Homo sapiens (Human), UniProt P03952)
Experiment: Plasma Kallikrein Activity Assay
Format: biochemical
Conditions: 2 nM kallikrein, 80 μM chromogenic substrate S2302, 30° C., pH 7.8; Ki by Cheng-Prusoff equation
Experimental: Plasma Kallikrein Activity Assay.
The effect of compounds of the invention on human plasma kallikrein activity was determined using the chromogenic substrates (DiaPharma Group, Inc., West Chester, Ohio, USA). In these experiments, 2 nM kallikrein (Enzyme Research Laboratories, South Bend, Ind., USA) was incubated with 80 μM S2302 (H-D-Pro-Phe-Arg-p-nitroaniline) in the absence or presence of increasing concentrations of compounds of the invention in a final volume of 200 μL Tris-HCl buffer (200 mM NaCl; 2.5 mM CaCl2; 50 mM Tris-HCl, pH 7.8).
Data were analyzed using SigmaPlot software (Systat Software, Inc., San Jose, Calif., USA) (Four Parameter Logistic Curve).

Chain of human plasma kallikrein (P03952 whole entry partner, looked up): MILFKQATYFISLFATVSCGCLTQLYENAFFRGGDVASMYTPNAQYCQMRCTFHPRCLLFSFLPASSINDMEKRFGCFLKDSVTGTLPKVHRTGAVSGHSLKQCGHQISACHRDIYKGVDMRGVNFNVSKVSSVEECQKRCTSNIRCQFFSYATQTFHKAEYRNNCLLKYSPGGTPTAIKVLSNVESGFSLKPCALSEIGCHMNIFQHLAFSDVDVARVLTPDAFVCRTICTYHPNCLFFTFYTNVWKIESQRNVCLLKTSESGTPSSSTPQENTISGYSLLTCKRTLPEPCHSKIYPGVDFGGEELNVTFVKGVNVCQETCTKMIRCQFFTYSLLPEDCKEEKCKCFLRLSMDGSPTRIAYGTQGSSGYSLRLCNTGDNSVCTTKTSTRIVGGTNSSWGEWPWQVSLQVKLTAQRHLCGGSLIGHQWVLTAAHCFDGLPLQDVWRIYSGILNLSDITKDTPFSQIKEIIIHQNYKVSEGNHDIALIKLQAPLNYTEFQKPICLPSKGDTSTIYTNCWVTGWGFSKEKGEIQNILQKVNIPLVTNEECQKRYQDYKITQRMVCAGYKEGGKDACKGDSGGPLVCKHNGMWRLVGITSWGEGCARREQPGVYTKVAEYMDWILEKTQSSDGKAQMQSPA
Chain of human plasma kallikrein (P03952 whole entry, looked up): as the sequence (P03952 whole entry partner, looked up) above

Compound	Ki
NCc1cccc(-n2nc(C(F)(F)F)cc2C(=O)Nc2cccc(C3OC(=O)Nc4ccccc43)c2)c1 (centres unmarked) [Compound 167f, 1-(3-(aminomethyl)phenyl)-N-(3-(2-oxo-2,4-dihydro-1H-benzo[d] [1,3]oxazin-4-yl)phenyl)-3-(trifluoromethyl)-1H-pyrazole-5-carboxamide]	> 100 nM
NCc1cccc(-n2nc(C(F)(F)F)cc2C(=O)Nc2cccc(C(c3ccccc3)N3CCCC3CO)c2)c1 (centres unmarked) [Compound 169b, 1-(3-(Aminomethyl)phenyl)-N-(3-((2-(hydroxymethyl)pyrrolidin-1-yl)(phenyl)methyl)phenyl)-3-(trifluoromethyl)-1H-pyrazole-5-carboxamide]	> 100 nM
NCc1cccc(-n2nc(C(F)(F)F)cc2C(=O)Nc2cccc(C(c3ccccc3)N3CCC(O)C3)c2)c1 (centres unmarked) [Compound 170b, 1-(3-(Aminomethyl)phenyl)-N-(3-((3-hydroxypyrrolidin-1-yl)(phenyl)methyl)phenyl)-3-(trifluoromethyl)-1H-pyrazole-5-carboxamide]	> 100 nM
NCc1cccc(-n2nc(C(F)(F)F)cc2C(=O)Nc2cccc(C(NC3CCCCCC3)c3ccccc3)c2)c1 (centres unmarked) [Compound 171b, 1-(3-(Aminomethyl)phenyl)-N-(3-((cycloheptylamino)(phenyl)methyl)phenyl)-3-(trifluoromethyl)-1H-pyrazole-5-carboxamide]	> 100 nM
CCCCCNC(c1ccccc1)c1cccc(NC(=O)c2cc(C(F)(F)F)nn2-c2cccc(CN)c2)c1 (centres unmarked) [Compound 172b, 1-(3-(Aminomethyl)phenyl)-N-(3-((pentylamino)(phenyl)methyl)phenyl)-3-(trifluoromethyl)-1H-pyrazole-5-carboxamide]	> 100 nM
CC(CO)NC(c1ccccc1)c1cccc(NC(=O)c2cc(C(F)(F)F)nn2-c2cccc(CN)c2)c1 (centres unmarked) [Compound 173b, 1-(3-(aminomethyl)phenyl)-N-(3-(((1-hydroxypropan-2-yl)amino)(phenyl)methyl)phenyl)-3-(trifluoromethyl)-1H-pyrazole-5-carboxamide]	> 100 nM
CC(C)(CO)NC(c1ccccc1)c1cccc(NC(=O)c2cc(C(F)(F)F)nn2-c2cccc(CN)c2)c1 (centres unmarked) [Compound 174b, 1-(3-(aminomethyl)phenyl)-N-(3-(((1-hydroxy-2-methylpropan-2-yl)amino)(phenyl)methyl)phenyl)-3-(trifluoromethyl)-1H-pyrazole-5-carboxamide]	> 100 nM
NCc1cccc(-n2nc(C(F)(F)F)cc2C(=O)Nc2cccc(C(NCC3CCCO3)c3ccccc3)c2)c1 (centres unmarked) [Compound 175b, 1-(3-(aminomethyl)phenyl)-N-(3-(phenyl(((tetrahydrofuran-2-yl)methyl)amino)methyl)phenyl)-3-(trifluoromethyl)-1H-pyrazole-5-carboxamide]	> 100 nM
CC(C)CCNC(c1ccccc1)c1cccc(NC(=O)c2cc(C(F)(F)F)nn2-c2cccc(CN)c2)c1 (centres unmarked) [Compound 176b, 1-(3-(aminomethyl)phenyl)-N-(3-((isopentylamino)(phenyl)methyl)phenyl)-3-(trifluoromethyl)-1H-pyrazole-5-carboxamide]	> 100 nM
CCC(C)CNC(c1ccccc1)c1cccc(NC(=O)c2cc(C(F)(F)F)nn2-c2cccc(CN)c2)c1 (centres unmarked) [Compound 177b, 1-(3-(Aminomethyl)phenyl)-N-(3-(((2-methylbutyl)amino)(phenyl)methyl)phenyl)-3-(trifluoromethyl)-1H-pyrazole-5-carboxamide]	> 100 nM
NCc1cccc(-n2nc(C(F)(F)F)cc2C(=O)Nc2cccc(C(c3ccccc3)N(CCO)CCO)c2)c1 (centres unmarked) [Compound 178b, 1-(3-(aminomethyl)phenyl)-N-(3-((bis(2-hydroxyethyl)amino)(phenyl)methyl)phenyl)-3-(trifluoromethyl)-1H-pyrazole-5-carboxamide]	> 100 nM
NCc1cccc(-n2nc(C(F)(F)F)cc2C(=O)Nc2cccc(C(NCc3cccnc3)c3ccccc3)c2)c1 (centres unmarked) [Compound 179b, 1-(3-(Aminomethyl)phenyl)-N-(3-(phenyl((pyridin-3-ylmethyl)amino)methyl)phenyl)-3-(trifluoromethyl)-1H-pyrazole-5-carboxamide]	> 100 nM
CCCCNC(c1ccccc1)c1cccc(NC(=O)c2cc(C(F)(F)F)nn2-c2cccc(CN)c2)c1 (centres unmarked) [Compound 180b, 1-(3-(Aminomethyl)phenyl)-N-(3-((butylamino)(phenyl)methyl)phenyl)-3-(trifluoromethyl)-1H-pyrazole-5-carboxamide]	> 100 nM
CC(O)CNC(c1ccccc1)c1cccc(NC(=O)c2cc(C(F)(F)F)nn2-c2cccc(CN)c2)c1 (centres unmarked) [Compound 182b, 1-(3-(aminomethyl)phenyl)-N-(3-(((2-hydroxypropyl)amino)(phenyl)methyl)phenyl)-3-(trifluoromethyl)-1H-pyrazole-5-carboxamide]	> 100 nM
NCc1cccc(-n2nc(C(F)(F)F)cc2C(=O)Nc2cccc(C(NCCCn3ccnc3)c3ccccc3)c2)c1 (centres unmarked) [Compound 183b, N-(3-(((3-(1H-Imidazol-1-yl)propyl)amino)(phenyl)methyl)phenyl)-1-(3-(aminomethyl)phenyl)-3-(trifluoromethyl)-1H-pyrazole-5-carboxamide]	> 100 nM
CN(C)C(c1ccccc1)c1cccc(NC(=O)c2cc(C(F)(F)F)nn2-c2cccc(CN)c2)c1 (centres unmarked) [Compound 184b, 1-(3-(Aminomethyl)phenyl)-N-(3-((dimethylamino)(phenyl)methyl)phenyl)-3-(trifluoromethyl)-1H-pyrazole-5-carboxamide]	> 100 nM
NCc1cccc(-n2nc(C(F)(F)F)cc2C(=O)Nc2cccc(C(NC3CCCCC3)c3ccccc3)c2)c1 (centres unmarked) [Compound 185b, 1-(3-(Aminomethyl)phenyl)-N-(3-((cyclohexylamino)(phenyl)methyl)phenyl)-3-(trifluoromethyl)-1H-pyrazole-5-carboxamide]	> 100 nM
NCc1cccc(-n2nc(C(F)(F)F)cc2C(=O)Nc2cccc(C(NCc3ccncc3)c3ccccc3)c2)c1 (centres unmarked) [Compound 186b, 1-(3-(Aminomethyl)phenyl)-N-(3-(phenyl((pyridin-4-ylmethyl)amino)methyl)phenyl)-3-(trifluoromethyl)-1H-pyrazole-5-carboxamide]	> 100 nM
CC(C)(C)CNC(c1ccccc1)c1cccc(NC(=O)c2cc(C(F)(F)F)nn2-c2cccc(CN)c2)c1 (centres unmarked) [Compound 187b, 1-(3-(Aminomethyl)phenyl)-N-(3-((neopentylamino)(phenyl)methyl)phenyl)-3-(trifluoromethyl)-1H-pyrazole-5-carboxamide]	> 100 nM
NCc1cccc(-n2nc(C(F)(F)F)cc2C(=O)Nc2cccc(C(NCc3ccc(N)cc3)c3ccccc3)c2)c1 (centres unmarked) [Compound 189b, N-(3-(((4-Aminobenzyl)amino)(phenyl)methyl)phenyl)-1-(3-(aminomethyl)phenyl)-3-(trifluoromethyl)-1H-pyrazole-5-carboxamide]	> 100 nM
CSCCNC(c1ccccc1)c1cccc(NC(=O)c2cc(C(F)(F)F)nn2-c2cccc(CN)c2)c1 (centres unmarked) [Compound 190b, 1-(3-(aminomethyl)phenyl)-N-(3-(((2-(methylthio)ethyl)amino)(phenyl)methyl)phenyl)-3-(trifluoromethyl)-1H-pyrazole-5-carboxamide]	> 100 nM
NCc1cccc(-n2nc(C(F)(F)F)cc2C(=O)Nc2cccc(C(NCCCO)c3ccccc3)c2)c1 (centres unmarked) [Compound 191b, 1-(3-(Aminomethyl)phenyl)-N-(3-(((3-hydroxypropyl)amino)(phenyl)methyl)phenyl)-3-(trifluoromethyl)-1H-pyrazole-5-carboxamide]	> 100 nM
NCc1cccc(-n2nc(C(F)(F)F)cc2C(=O)Nc2cccc(C(NCC3CC3)c3ccccc3Cl)c2)c1 (centres unmarked) [Compound 194f, 1-(3-(aminomethyl)phenyl)-N-(3-((2-chlorophenyl)((cyclopropylmethyl)amino)methyl)phenyl)-3-(trifluoromethyl)-1H-pyrazole-5-carboxamide]	0.1 to 50 nM
CC(C)(C)c1ccc(C(NCC2CC2)c2cccc(NC(=O)c3cc(C(F)(F)F)nn3-c3cccc(CN)c3)c2)cc1 (centres unmarked) [Compound 203f, 1-(3-(aminomethyl)phenyl)-N-(3-((4-(tert-butyl)phenyl)((cyclopropylmethyl)amino)methyl)phenyl)-3-(trifluoromethyl)-1H-pyrazole-5-carboxamide]	> 100 nM
Nc1n[nH]c2ccc(-n3nc(C(F)(F)F)cc3C(=O)Nc3cc(C(NCC4CC4)c4ccccc4)ccc3F)cc12 (centres unmarked) [Compound 224b, 1-(3-amino-1H-indazol-5-yl)-N-(5-((cyclopropylmethylamino)(phenyl)methyl)-2-fluorophenyl)-3-(trifluoromethyl)-1H-pyrazole-5-carboxamide]	> 100 nM
Nc1ncnc2ccc(-n3nc(C(F)(F)F)cc3C(=O)Nc3cc(C(NCC4CC4)c4ccccc4)ccc3F)cc12 (centres unmarked) [Compound 226a, 1-(4-aminoquinazolin-6-yl)-N-(5-((cyclopropylmethylamino)(phenyl)methyl)-2-fluorophenyl)-3-(trifluoromethyl)-1H-pyrazole-5-carboxamide]	> 100 nM

System: animal model of ischemic stroke
Experiment: not given
Conditions: cited from earlier work

Compound	brain edema	infarct volume	neurological deficits
ecallantide [DX-88]	reduced	reduced	reduced

System: lipopolysaccharide (LPS)- or bacterial-induced sepsis in animals
Experiment: not given
Conditions: cited from earlier work

Compound	lesions
H-D-Pro-Phe-Arg-chloromethylketone [reference compound]	reduce

System: patients with hereditary angioedema (HAE)
Experiment: not given
Conditions: HAE; cited from earlier work

Compound	efficacy in treating HAE
NC(N)=NCCC[C@@H](N)C(=O)N[C@@H](CCCN=C(N)N)C(=O)N1CCC[C@H]1C(=O)N1C[C@H](O)C[C@H]1C(=O)NCC(=O)N[C@@H](Cc1cccs1)C(=O)N[C@@H](CO)C(=O)N1Cc2ccccc2C[C@@H]1C(=O)N1[C@H](C(=O)N[C@@H](CCCN=C(N)N)C(=O)O)C[C@@H]2CCCC[C@@H]21 [Icatibant]	effective

Same assay, conditions: patients with HAE; cited from earlier work

Compound	edema in patients with hereditary angioedema
ecallantide [DX-88]	alleviates edema
